The values below come from patent US11746374B2, “Methods and platform for screening and selecting metabolites and their receptors” (BOARD OF REGENTS, THE UNIVERSITY OF TEXAS SYSTEM, priority 2017, dated 2023).

Structures are written as SMILES. Like-named read-outs stand apart in the source and are kept apart here.

One may read the EC50 as the concentration needed to bring the measured effect to its halfway point. A word on the IC50: it is the midpoint of a concentration-inhibition curve.

One assay addresses T1, P2X7 (Homo sapiens, UniProt Q99572).
T1 construct: expressed in transfected cells; host or cells: Saccharomyces cerevisiae BY4741 dCne1p, genome-integrated under the GAL1 promoter
T1 sequence (Q99572 1-595): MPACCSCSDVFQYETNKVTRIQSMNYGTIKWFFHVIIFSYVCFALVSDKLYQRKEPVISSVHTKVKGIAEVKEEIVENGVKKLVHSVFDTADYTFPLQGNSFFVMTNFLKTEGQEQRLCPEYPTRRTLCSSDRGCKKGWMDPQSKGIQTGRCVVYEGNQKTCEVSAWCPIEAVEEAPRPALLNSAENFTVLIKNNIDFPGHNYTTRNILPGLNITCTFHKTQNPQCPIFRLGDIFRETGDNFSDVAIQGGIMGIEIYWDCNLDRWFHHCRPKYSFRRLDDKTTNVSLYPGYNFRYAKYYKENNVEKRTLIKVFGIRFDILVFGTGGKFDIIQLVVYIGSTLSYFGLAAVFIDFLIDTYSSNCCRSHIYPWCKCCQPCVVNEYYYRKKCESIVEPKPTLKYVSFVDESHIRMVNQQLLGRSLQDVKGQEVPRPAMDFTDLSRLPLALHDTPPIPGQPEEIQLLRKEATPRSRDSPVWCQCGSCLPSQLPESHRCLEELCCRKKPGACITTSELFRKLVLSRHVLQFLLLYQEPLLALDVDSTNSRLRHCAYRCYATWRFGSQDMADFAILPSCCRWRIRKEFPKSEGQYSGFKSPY
The experiment in a line: Aequorin functional assay of P2X receptors in yeast. The format is cell-based. As to conditions: upon ATP addition. The method, then: (§1) Ion channel activity in yeast was tested with the purinergic P2X ion channel family. Channel gating was assessed by an aequorin assay in which aequorin is co-expressed with the receptor and, upon addition of the prosthetic group coelenterazine and addition of calcium, blue light is released. The aequorin-based functional assay was performed in all seven P2X receptors (FIG. 8). P2X1-7 were integrated into the chromosome to mitigate copy number variation between clones and were induced with galactose with the pGal1 promoter. […] Among those receptors that didn't work, it was suspected that improvements in expression and trafficking can improve functionality. For example, by modulating trafficking domains within the P2X4 receptor, aggregation was reduced in vesicles (FIG. 9), and it is believed that this tactic can be employed in other receptors. […] This can be because P2X2 has the slowest desensitization rates of the family (and is often considered “non-desensitizing”) and has the highest unitary conductance (30 pS).
(§2) BY4741ΔCne1p cells were transformed with vectors containing P2X variants. Transformants were validated and made competent for a subsequent transformation with a vector containing aequorin under the expression of the constitutive PGK2 promoter. Overnight cells were induced with 2% […] for 20 hours. Following receptor expression, cells were collected by centrifugation and concentrated to 500 μL. The concentrated cells were then incubated with 5 μL of 1 mg/mL coelenterazine for 30 minutes at room temperature. Washed cells were then resuspended in softening buffer (1 M Sorbitol, 25 mM EDTA, 50 mM DTT), followed by washes in 1 M sorbitol and water. […] Using an F500, 25 μL of cells were monitored for luminescence for 5 seconds. Upon addition of ligand or buffer (100 μL), cells were monitored for luminescence for varying times. […] Luminescence was monitored before and after the addition of 100 μL of 10 μM ATP. Areas under the curve were calculated and plotted against a negative control to determine the IC50.

In a further assay the target is T2, P2X4 (Homo sapiens, UniProt Q99571).
T2 construct: expressed in transfected cells; host or cells: Saccharomyces cerevisiae BY4741 dCne1p, single-copy integration, GAL1 promoter
T2 sequence (Q99571 with tags, fused parts or gaps): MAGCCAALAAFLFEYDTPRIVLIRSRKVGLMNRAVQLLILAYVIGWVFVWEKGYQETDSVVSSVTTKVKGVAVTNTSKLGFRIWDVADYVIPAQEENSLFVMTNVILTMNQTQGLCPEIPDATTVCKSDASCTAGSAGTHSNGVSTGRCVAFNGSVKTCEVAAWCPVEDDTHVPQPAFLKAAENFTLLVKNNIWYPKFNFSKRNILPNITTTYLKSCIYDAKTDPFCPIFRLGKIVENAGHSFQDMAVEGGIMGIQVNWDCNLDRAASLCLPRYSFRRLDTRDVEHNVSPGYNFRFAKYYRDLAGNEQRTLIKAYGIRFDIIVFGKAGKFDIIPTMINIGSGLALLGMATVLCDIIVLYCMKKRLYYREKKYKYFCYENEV
The description is as above. It is filed as cell-based. As to conditions: upon ATP addition. As for the experimental part:
as §1, §2

For another assay, the target named is T3, P2X1 (Homo sapiens, UniProt P51575).
T3 construct: expressed in transfected cells; host or cells: Saccharomyces cerevisiae BY4741 dCne1p, genome-integrated under the GAL1 promoter
T3 sequence (P51575 1-399): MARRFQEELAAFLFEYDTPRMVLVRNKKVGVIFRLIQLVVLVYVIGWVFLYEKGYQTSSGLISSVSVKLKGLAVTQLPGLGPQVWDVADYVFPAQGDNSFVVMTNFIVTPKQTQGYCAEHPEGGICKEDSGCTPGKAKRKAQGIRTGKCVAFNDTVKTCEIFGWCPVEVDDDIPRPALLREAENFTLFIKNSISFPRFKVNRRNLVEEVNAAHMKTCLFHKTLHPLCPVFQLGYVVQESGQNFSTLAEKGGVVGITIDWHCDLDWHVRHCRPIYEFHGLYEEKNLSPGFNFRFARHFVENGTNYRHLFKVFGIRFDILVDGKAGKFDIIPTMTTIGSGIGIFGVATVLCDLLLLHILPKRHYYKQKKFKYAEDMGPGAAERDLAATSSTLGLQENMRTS
Described as above. It is filed as cell-based. As to conditions: upon ATP addition. The method, then: as §1, §2

For assay [1], the target named is T4, P2X2 (Homo sapiens, UniProt Q9UBL9).
T4 sequence (Q9UBL9 1-471): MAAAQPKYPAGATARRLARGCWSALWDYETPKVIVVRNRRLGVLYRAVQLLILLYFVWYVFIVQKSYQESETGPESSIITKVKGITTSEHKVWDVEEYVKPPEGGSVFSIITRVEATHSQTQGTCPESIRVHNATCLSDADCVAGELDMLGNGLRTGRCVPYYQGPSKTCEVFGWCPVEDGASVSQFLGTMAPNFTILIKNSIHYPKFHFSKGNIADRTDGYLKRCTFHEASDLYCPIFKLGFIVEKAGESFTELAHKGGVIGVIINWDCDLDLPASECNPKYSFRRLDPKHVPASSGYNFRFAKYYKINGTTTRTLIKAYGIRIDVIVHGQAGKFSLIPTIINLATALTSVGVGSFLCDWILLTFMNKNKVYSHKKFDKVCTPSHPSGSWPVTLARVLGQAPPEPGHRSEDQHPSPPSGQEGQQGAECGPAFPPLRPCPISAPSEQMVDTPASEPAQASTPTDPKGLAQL
Description: Plate-based aequorin luminescence assay of P2X2 expressed in yeast. It is filed as cell-based. More on the design: expressed in transfected cells; host or cells: Saccharomyces cerevisiae BY4741 dCne1p, genome-integrated under the GAL1 promoter, aequorin on a high-copy plasmid. The method, then: as §1
To determine whether or not this truncated channel gated in yeast, an aequorin-based functional assay was used. Here aequorin, a bioluminescent protein, emits a photon upon binding calcium. This is done with the aid of coelenterazine, which must be added exogenously to yeast. The reaction is not catalytic, and the off-rate of calcium is too slow to observe on the timescales utilized in our assays. To optimize conditions for expression of both the receptor and reporter, a combination of integration, low-copy, and high-copy vectors was used. At this point, it was only possible to produce a signal upon addition of ATP, the native ligand, when both the receptor and reporter were expressed on high-copy plasmids (FIG. 56).
BY4741ΔCne1p cells were transformed with vectors containing P2X variants. Transformants were validated and made competent for a subsequent transformation with a vector containing aequorin under the expression of the constitutive PGK2 promoter. Overnight cells were induced with 2% […] for 20 hours. Following receptor expression, cells were collected by centrifugation and concentrated to 500 μL. The concentrated cells were then incubated with 5 μL of 1 mg/mL coelenterazine for 30 minutes at room temperature. Washed cells were then resuspended in softening buffer (1 M Sorbitol, 25 mM EDTA, 50 mM DTT), followed by washes in 1 M sorbitol and water. Cells were then resuspended in 50 mM MES/Tris pH 6.5 and aliquoted into a 96-well plate. Using an F500, 25 μL of cells were monitored for luminescence for 5 seconds. Upon addition of ligand or buffer (100 μL), cells were monitored for luminescence for varying times. Cell lysis was performed with the addition of 100 μL Tween20. For inhibition, varying concentrations of suramin were incubated with cells. Luminescence was monitored before and after the addition of 100 μL of 10 μM ATP. Areas under the curve were calculated and plotted against a negative control to determine the IC50.

The next assay deals with T5, human 5HT1A (Homo sapiens, UniProt P08908).
T5 construct: expressed in transfected cells; host or cells: Saccharomyces cerevisiae JG05-2.0 (2 micron plasmid, pTDH3) / JG05-1.0 (single-copy integration at HO)
T5 sequence (P08908 1-422): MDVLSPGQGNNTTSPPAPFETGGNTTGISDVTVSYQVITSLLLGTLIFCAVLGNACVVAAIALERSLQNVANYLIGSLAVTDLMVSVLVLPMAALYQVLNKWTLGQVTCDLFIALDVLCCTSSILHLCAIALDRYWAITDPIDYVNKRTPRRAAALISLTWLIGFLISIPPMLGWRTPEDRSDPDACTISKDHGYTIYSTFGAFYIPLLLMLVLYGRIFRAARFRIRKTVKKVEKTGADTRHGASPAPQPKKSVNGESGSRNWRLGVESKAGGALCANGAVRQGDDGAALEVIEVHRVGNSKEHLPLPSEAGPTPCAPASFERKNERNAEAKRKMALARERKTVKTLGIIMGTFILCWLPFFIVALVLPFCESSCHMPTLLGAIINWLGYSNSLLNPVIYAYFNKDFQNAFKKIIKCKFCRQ
Description: GPCR-CPR proof of concept, emulsion PCR amplification in yeast. It is filed as cell-based. As to conditions: cells treated with 250 μM serotonin vs negative control; single-copy integration at HO site. From the text:
Having shown functionality of the 5HT1A receptor, CPR strains (JG05-1.0) were constructed using this receptor. […] However, background was mitigated by increasing the pH of the CPR master mix to pH 8.8 and lowering the number of cycles from 35 to 20 during the emulsion PCR. […] Further optimization of expression parameters can greatly increase the signal:noise. For example, a much more pronounced difference can be seen when expressing the receptor from a high-copy plasmid. The experiments outlined here were also performed with cells growing with the ligand for 18 hours. By concentrating the cells and limiting the time of induction, a decrease in background signal can be seen.
Control cells were not induced. Cells (3 mL total) were collected after 18 hours of induction and spun in a tabletop centrifuge at 3,000×g for 5 minutes. The supernatant was discarded and the cell pellet was washed in water and then resuspended in 1 M sorbitol, 25 mM EDTA, 50 mM DTI′. Cells were collected again and washed in 1 M sorbitol. After another wash with water, cells were resuspended in 500 μL PCR mastermix (pH 8.0 or pH 8.8). The resuspended cells were placed into a 2 mL tube with a 1 mL rubber syringe plunger and 1200 μL of oil mix (876 Tegosoft DEC, 84 Gransurf W9, and 240 μL light mineral oil (Sigma-Aldrich)). […]

The target of assay [2] is T4, P2X2. As to conditions: Baqi et al., 2011; Lambrecht et al., 2002; read-out: range of reported IC50 values; cited from earlier work.

As to `Nc1ncnc2c1ncn2[C@@H]1O[C@H](COP(=O)(O)OP(=O)(O)OP(=O)(O)O)[C@@H](O)[C@H]1O` [ATP], the “ligand-dependent gating, calcium influx” value at P2X7, at P2X4 and on P2X1 was “showed an ATP-dependent calcium influx” in each case. For the same molecule, the “agonism / gating of P2X2” value on P2X2 [1] (aequorin luminescence) is recorded as “showed an ATP-dependent calcium influx”. The EC50 at P2X2 [1] (dose-response, area under luminescence curve) is 6.7 ± 1.5 µM.

As for `NCCc1c[nH]c2ccc(O)cc12` [serotonin], the “increase in signal of CPR amplification product” value on human 5HT1A was found to be 20 fold.

Regarding `Cc1ccc(C(=O)Nc2ccc(S(=O)(=O)O)c3cc(S(=O)(=O)O)cc(S(=O)(=O)O)c23)cc1NC(=O)c1cccc(NC(=O)Nc2cccc(C(=O)Nc3cc(C(=O)Nc4ccc(S(=O)(=O)O)c5cc(S(=O)(=O)O)cc(S(=O)(=O)O)c45)ccc3C)c2)c1` [suramin], the IC50 at P2X2 [2] was 2 to 48 µM; at P2X2 [1] (cells equilibrated with suramin, then 10 μM ATP), 31.6 ± 1.4 µM.
